From US20020094522A1, “Means and methods for monitoring non-nucleoside reverse transcriptase inhibitor antiretroviral therapy and guiding therapeutic decisions in the treatment of HIV/AIDS” (priority 2000, published 2002) come the findings set out here.

In experiment [1] the test system is T66I integrase site-directed mutant resistance test vector. Description: Phenotypic susceptibility assay, T66I integrase mutant vector. In kind it is cell-based, HIV. Particulars: T66I integrase mutant. The protocol: Transfections were performed using a calcium-phosphate precipitation procedure. […] Cell lysates were assayed for luciferase activity (FIG. 3).
The drug inhibition curves are shown in (FIG. 3).
A resistance test vector containing the threonine to isoleucine mutation at position 66 of the integrase protein (T66I) was constructed and tested using the phenotypic assay described earlier.

The test system of experiment [2] is RTV-268 (patient sample 97-268; P236L). As to the kind of experiment: Phenotypic susceptibility assay, RTV-268. In kind it is cell-based, HIV-1. Particulars: RTV-268 / patient 268. The text has this:
The resistance test vectors containing a functional luciferase gene cassette were constructed and host cells were transfected with the resistance test vector DNA. The resistant test vectors contained patient-derived reverse transcriptase and protease sequences that were either susceptible or resistant to the antiretroviral agents, such as nucleoside reverse transcriptase inhibitors, non-nucleoside reverse transcriptase inhibitors and protease inhibitors. The resistance test vector viral particles produced by transfecting the resistance test vector DNA into host cells, either in the presence or absence of protease inhibitors, were used to infect target host cells grown either in the absence of NRTI or NNRTI or in the presence of increasing concentrations of the drug. The amount of luciferase activity produced in infected target host cells in the presence of drug was compared to the amount of luciferase produced in infected target host cells in the absence of drug. Drug resistance was measured as the amount of drug required to inhibit by 50% the luciferase activity detected in the absence of drug (inhibitory concentration 50%, IC50). The IC50 values were determined by plotting percent drug inhibition vs. log10 drug concentration.
Host cells were seeded in 10-cm-diameter dishes and were transfected several days after plating with resistance test vector plasmid DNA and the envelope expression vector. Transfections were performed using a calcium-phosphate precipitation procedure. The cell culture media containing the DNA precipitate was replaced with fresh medium, from one to 24 hours, after transfection. Cell culture media containing resistance test vector viral particles was harvested one to four days after transfection and was passed through a […] filter before being stored at −80° C. HIV capsid protein (p24) levels in the harvested cell culture media were determined by an EIA method as described by the manufacturer (SIAC; Frederick, Md.). Before infection, target cells (293 and 293/T) were plated in cell culture media. Control infections were performed using cell culture media from mock transfections (no DNA) or transfections containing the resistance test vector plasmid DNA without the envelope expression plasmid. One to three or more days after infection the media was removed and cell lysis buffer (Promega) was added to each well. […] The inhibitory effect of the drug was determined using the following equation: […]
where RLUluc [drug] is the relative light unit of luciferase activity in infected cells in the presence of drug and RLUluc is the Relative Light Unit of luciferase activity in infected cells in the absence of drug. IC50 values were obtained from the sigmoidal curves that were generated from the data by plotting the percent inhibition of luciferase activity vs. the log10 drug concentration.
A resistance test vector was constructed as described in Example 1 from a patient sample designated 97-268. […] Isolation of viral RNA and RT/PCR was used to generate a patient derived segment that comprised viral sequences coding for all of PR and amino acids 1-313 of RT. The patient derived segment was inserted into a indicator gene viral vector to generate a resistance test vector designated RTV-268. RTV-268 was then tested using the phenotypic susceptibility assay to determine accurately and quantitatively the level of susceptibility to a panel of anti-retroviral drugs. […] An IC50 was determined for each drug tested. Susceptibility of the patient virus to each drug was examined and compared to the susceptibility of a reference virus. […] The sample was examined further for genotypic changes associated with the pattern of susceptibility.

For `O=C(O)C(=O)CC(=O)c1cccn1Cc1ccc(F)cc1` [L-731,988], in experiment [1], the “reduction in susceptibility compared to wild type control RTV” value is 4.7 fold. With `Cc1cn([C@H]2C[C@H](N=[N+]=[N-])[C@@H](CO)O2)c(=O)[nH]c1=O` [AZT], the “susceptibility/resistance compared to reference virus” value in experiment [2] is recorded as “significant resistance”. Same read-out and setting: under `Nc1ccn([C@@H]2CS[C@H](CO)O2)c(=O)n1` [3TC] stands “significant resistance”; under `O=c1[nH]cnc2c1ncn2[C@H]1CC[C@@H](CO)O1` [ddI], “slight shifts in susceptibility”.

On to `Cc1cn([C@H]2C=C[C@@H](CO)O2)c(=O)[nH]c1=O` [d4T], for which the “susceptibility/resistance compared to reference virus” value in experiment [2] is given as “slight shifts in susceptibility”. Same read-out and setting: under `Nc1ccn([C@H]2CC[C@@H](CO)O2)c(=O)n1` [ddC] stands “slight shifts in susceptibility”.
